Results taken from patent publication US10287301B2 (Achillion Pharmaceuticals, Inc., priority 2015, dated 2019).

Target: Human Factor D (Homo sapiens (Human), UniProt P00746)
Test: Human Factor D Assay
Assay type: biochemical
Conditions: Human Factor D, Table 3; read-out: IC50
Summary of the method: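 Thioesterase activity monitored with Z-L-Lys-SBzl plus Ellman's reagent (DTNB), each 100 μM final, after 5 min room-temperature compound preincubation of 80 nM human serum Factor D in pH 7.5 Tris (50 mM)/1M NaCl.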

Chain of Human Factor D (P00746 26-253): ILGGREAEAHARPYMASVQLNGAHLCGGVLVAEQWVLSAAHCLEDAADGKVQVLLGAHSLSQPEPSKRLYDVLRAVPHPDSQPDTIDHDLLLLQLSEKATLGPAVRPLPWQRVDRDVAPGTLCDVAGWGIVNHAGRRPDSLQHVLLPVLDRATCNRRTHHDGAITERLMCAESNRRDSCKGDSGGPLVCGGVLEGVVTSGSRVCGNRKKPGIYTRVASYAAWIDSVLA

Row | Compound | IC50 [µM]
1 | COC(=O)c1ccc(Br)nc1NC(=O)[C@@H]1C[C@@H](F)CN1C(=O)Cn1nc(C(C)=O)c2cc(-c3cnc(C)nc3)ccc21 [Compound 607, Methyl 2-((2S,4R)-1-(2-(3-Acetyl-5-(2-methylpyrimidin-5-yl)-1H-indazol-1-yl)acetyl)-4-fluoropyrrolidine-2-carboxamido)-6-bromonicotinate] | < 1
2 | CC(=O)c1nn(CC(=O)N2C[C@H](F)C[C@H]2C(=O)Nc2cccc(Br)n2)c2c(C)cc(-c3cnc(C)nc3)cc12 [Compound 608, (2S,4R)-1-(2-(3-Acetyl-7-methyl-5-(2-methylpyrimidin-5-yl)-1H-indazol-1-yl)acetyl)-N-(6-bromopyridin-2-yl)-4-fluoropyrrolidine-2-carboxamide] | < 1
3 | CC(=O)c1nn(CC(=O)N2C[C@H](F)C[C@H]2C(=O)Nc2cccc(Br)n2)c2cc(C)c(-c3cnc(C)nc3)cc12 [Compound 609, (2S,4R)-1-(2-(3-Acetyl-6-methyl-5-(2-methylpyrimidin-5-yl)-1H-indazol-1-yl)acetyl)-N-(6-bromopyridin-2-yl)-4-fluoropyrrolidine-2-carboxamide] | < 1
4 | CC(=O)c1nn(CC(=O)N2[C@@H]3C[C@@H]3C[C@H]2C(=O)NC2CCN(CC(F)(F)F)C2)c2ccc(-c3cnc(C)nc3)cc12 (stereo partly drawn) [Compound 611, (1R, 3S, 5R)-2-(2-(3-acetyl-5-(2-methylpyrimidin-5-yl)-1H-indazol-1-yl)acetyl)-N-(1-(2,2,2-trifluoroethyl)pyrrolidin-3-yl)-2-azabicyclo [3.1.0] hexane-3-carboxamide] | < 1
5 | CC(=O)c1nn(CC(=O)N2C[C@H](F)C[C@H]2C(=O)NCC23CC4CC(CC(C4)C2)C3)c2ccc(-c3cnc(C)nc3)cc12 [Compound 612, (2S,4R)-1-(2-(3-Acetyl-5-(2-methylpyrimidin-5-yl)-1H-indazol-1-yl)acetyl)-N-(((3S,5S,7S)-adamantan-1-yl)methyl)-4-fluoropyrrolidine-2-carboxamide] | < 1
6 | CC(=O)c1nn(CC(=O)N2C[C@H](F)C[C@H]2C(=O)Nc2nc(Br)ccc2C(=O)O)c2ccc(-c3cnc(C)nc3)cc12 [Compound 615, 2-((2S,4R)-1-(2-(3-Acetyl-5-(2-methylpyrimidin-5-yl)-1H-indazol-1-yl)acetyl)-4-fluoropyrrolidine-2-carboxamido)-6-bromonicotinic acid] | < 1
7 | CC(=O)c1nn(CC(=O)N2[C@H](C(=O)Nc3nc(Br)ccc3C3CC3)C[C@@]3(C)C[C@@H]23)c2ccc(-c3cnc(C)nc3)cc12 [Compound 616, (1R,3S,5R)-2-(2-(3-Acetyl-5-(2-methylpyrimidin-5-yl)-1H-indazol-1-yl)acetyl)-N-(6-bromo-3-cyclopropyl-pyridin-2-yl)-5-methyl-2-azabicyclo[3.1.0]hexane-3-carboxamide] | < 1
8 | CC(=O)c1nn(CC(=O)N2C3CC[C@@H](C3)[C@H]2C(=O)Nc2nc(Br)ccc2C)c2ccc(-c3cnc(C)nc3)cc12 [Compound 617, (3S,4S)-2-(2-(3-Acetyl-5-(2-methylpyrimidin-5-yl)-1H-indazol-1-yl)acetyl)-N-(6-bromo-3-methylpyridin-2-yl)-2-azabicyclo[2.2.1]heptane-3-carboxamide] | < 1
9 | CC(=O)c1nn(CC(=O)N2[C@H](C(=O)Nc3nc(Br)ccc3C)C[C@@]3(C)C[C@@H]23)c2ccc(-c3cnc(N)nc3)cc12 [Compound 620, (1R,3S,5R)-2-(2-(3-Acetyl-5-(2-aminopyrimidin-5-yl)-1H-indazol-1-yl)acetyl)-N-(6-bromo-3-methylpyridin-2-yl)-5-methyl-2-azabicyclo[3.1.0]hexane-3-carboxamide] | < 1
10 | CC(=O)c1nn(CC(=O)N2[C@H](C(=O)NCC(F)=C(C)C)C[C@@]3(C)C[C@@H]23)c2ccc(-c3cnc(C)nc3)cc12 [Compound 621, (1R,3S,5R)-2-(2-(3-acetyl-5-(2-methylpyrimidin-5-yl)-1H-indazol-1-yl)acetyl)-N-(2-fluoro-3-methylbut-2-en-1-yl)-5-methyl-2-azabicyclo[3.1.0] hexane-3-carboxamide] | < 1
11 | CC(=O)c1nn(CC(=O)N2[C@H](C(=O)N[C@@H](C)C(F)=C(C)C)C[C@@]3(C)C[C@@H]23)c2ccc(-c3cnc(C)nc3)cc12 [Compound 622, (1R,3S,5R)-2-(2-(3-acetyl-5-(2-methylpyrimidin-5-yl)-1H-indazol-1-yl)acetyl)-N-((S)-3-fluoro-4-methylpent-3-en-2-yl)-5-methyl-2-azabicyclo[3.1.0] hexane-3-carboxamide] | < 1
12 | CC(=O)c1nn(CC(=O)N2[C@H](C(=O)N[C@H](C)C(F)=C(C)C)C[C@@]3(C)C[C@@H]23)c2ccc(-c3cnc(C)nc3)cc12 [Compound 623, (1R,3S,5R)-2-(2-(3-acetyl-5-(2-methylpyrimidin-5-yl)-1H-indazol-1-yl)acetyl)-N-((R)-3-fluoro-4-methylpent-3-en-2-yl)-5-methyl-2-azabicyclo[3.1.0] hexane-3-carboxamide] | < 1
13 | CC(=O)c1nn(CC(=O)N2[C@H](C(=O)Nc3cccc(OC(F)(F)F)n3)C[C@@]3(C)C[C@@H]23)c2ccc(-c3cnc(C)nc3)cc12 [Compound 624, (1R,3S,5R)-2-(2-(3-acetyl-5-(2-methylpyrimidin-5-yl)-1H-indazol-1-yl)acetyl)-5-methyl-N-(6-(trifluoromethoxy)pyridin-2-yl)-2-azabicyclo[3.1.0] hexane-3-carboxamide] | < 1
14 | CC(=O)c1nn(CC(=O)N2[C@H](C(=O)Nc3ccn(CC(F)(F)F)n3)C[C@@]3(C)C[C@@H]23)c2ccc(-c3cnc(C)nc3)cc12 [Compound 625] | < 1
15 | CC(=O)c1nn(CC(=O)N2[C@H](C(=O)Nc3cccc(OC(F)(F)F)c3F)C[C@@]3(C)C[C@@H]23)c2ccc(-c3cnc(C)nc3)cc12 [Compound 630, (1R,3S,5R)-2-(2-(3-acetyl-5-(2-methylpyrimidin-5-yl)-1H-indazol-1-yl)acetyl)-N-(2-fluoro-3-(trifluoromethoxy)phenyl)-5-methyl-2-azabicyclo[3.1.0] hexane-3-carboxamide] | < 1
16 | CC(=O)c1nn(CC(=O)N2[C@H](C(=O)Nc3cccc(C(F)(F)F)n3)C[C@@]3(C)C[C@@H]23)c2ccc(-c3cnc(C)nc3)cc12 [Compound 631, (1R,3S,5R)-2-(2-(3-acetyl-5-(2-methylpyrimidin-5-yl)-1H-indazol-1-yl)acetyl)-5-methyl-N-(6-(trifluoromethyl)pyridin-2-yl)-2-azabicyclo[3.1.0] hexane-3-carboxamide] | < 1
17 | COc1ncc(-c2ccc3c(c2)c(C(C)=O)nn3CC(=O)N2[C@H](C(=O)Nc3nc(Br)ccc3C)C[C@@]3(C)C[C@@H]23)cn1 [Compound 632, (1R,3S,5R)-2-(2-(3-Acetyl-5-(2-methoxypyrimidin-5-yl)-1H-indazol-1-yl)acetyl)-N-(6-bromo-3-methylpyridin-2-yl)-5-methyl-2-azabicyclo[3.1.0]hexane-3-carboxamide] | < 1
18 | CC(=O)c1nn(CC(=O)N2C[C@H](F)C[C@H]2C(=O)Nc2cccc(Br)n2)c2cnc(-c3cnc(C)nc3)cc12 [Compound 633, (2S,4R)-1-(2-(3-Acetyl-5-(2-methylpyrimidin-5-yl)-1H-pyrazolo[3,4-c]pyridin-1-yl)acetyl)-N-(6-bromopyridin-2-yl)-4-fluoropyrrolidine-2-carboxamide] | < 1
19 | COc1ncc(-c2ccc3c(c2)c(C(C)=O)nn3CC(=O)N2C[C@H]3C[C@H]3[C@H]2C(=O)Nc2nc(Br)ccc2C)cn1 [Compound 634, (1R,2S,5S)-3-(2-(3-Acetyl-5-(2-methoxypyrimidin-5-yl)-1H-indazol-1-yl)acetyl)-N-(6-bromo-3-methylpyridin-2-yl)-3-azabicyclo[3.1.0]hexane-2-carboxamide] | < 1
20 | CC(=O)c1nn(CC(=O)N2C[C@H]3C[C@H]3[C@H]2C(=O)Nc2nc(Br)ccc2C)c2ccc(-c3cnc(N)nc3)cc12 [Compound 635, (1R,2S,5S)-3-(2-(3-Acetyl-5-(2-aminopyrimidin-5-yl)-1H-indazol-1-yl)acetyl)-N-(6-bromo-3-methylpyridin-2-yl)-3-azabicyclo[3.1.0]hexane-2-carboxamide] | < 1
21 | CC(=O)c1nn(CC(=O)N2[C@H](C(=O)Nc3nc(Br)ccc3C)C[C@@]3(C)C[C@@H]23)c2c(C)cc(-c3cnc(C)nc3)cc12 [Compound 636, (1R,3S,5R)-2-(2-(3-Acetyl-7-methyl-5-(2-methylpyrimidin-5-yl)-1H-indazol-1-yl)acetyl)-N-(6-bromo-3-methylpyridin-2-yl)-5-methyl-2-azabicyclo[3.1.0]hexane-3-carboxamide] | < 1
22 | CC(=O)c1nn(CC(=O)N2C[C@H]3C[C@H]3[C@H]2C(=O)Nc2nc(Br)ccc2C2CC2)c2ccc(-c3cnc(C)nc3)cc12 [Compound 637, (1R,2S,5S)-3-(2-(3-Acetyl-5-(2-methylpyrimidin-5-yl)-1H-indazol-1-yl)acetyl)-N-(6-bromo-3-cyclopropylpyridin-2-yl)-3-azabicyclo[3.1.0]hexane-2-carboxamide] | < 1
23 | CC(=O)c1nn(CC(=O)N2C[C@H]3C[C@H]3[C@H]2C(=O)Nc2ccn(CC(F)(F)F)n2)c2ccc(-c3cnc(C)nc3)cc12 [Compound 638, (1R,2S,5S)-3-(2-(3-Acetyl-5-(2-methylpyrimidin-5-yl)-1H-indazol-1-yl)acetyl)-N-(1-(2,2,2-trifluoroethyl)-1H-pyrazol-3-yl)-3-azabicyclo[3.1.0]hexane-2-carboxamide] | < 1
24 | CC(=O)c1nn(CC(=O)N2C[C@@](F)(CN(C)C)C[C@H]2C(=O)Nc2cccc(Br)n2)c2ccc(-c3cnc(C)nc3)cc12 [Compound 639, (2S,4S)-1-(2-(3-Acetyl-5-(2-methylpyrimidin-5-yl)-1H-indazol-1-yl)acetyl)-N-(6-bromopyridin-2-yl)-4-((dimethylamino)methyl)-4-fluoropyrrolidine-2-carboxamide] | < 1
